Where a chain is given by its changes, count along the chain named.
What was measured:
Assay in all cases: HEK assay: α-Gal A activity in HEK-293 cell lysate with migalastat
Format in all cases: cell-based
[1] = molecular target: T1, α-Gal A mutant form p.Pro293Thr (c.877 C > A) (Homo sapiens, UniProt P06280, P293T)
T1 construct: expressed in transfected cells; host or cells: HEK-293
T1 sequence (P06280 32-429 P293T): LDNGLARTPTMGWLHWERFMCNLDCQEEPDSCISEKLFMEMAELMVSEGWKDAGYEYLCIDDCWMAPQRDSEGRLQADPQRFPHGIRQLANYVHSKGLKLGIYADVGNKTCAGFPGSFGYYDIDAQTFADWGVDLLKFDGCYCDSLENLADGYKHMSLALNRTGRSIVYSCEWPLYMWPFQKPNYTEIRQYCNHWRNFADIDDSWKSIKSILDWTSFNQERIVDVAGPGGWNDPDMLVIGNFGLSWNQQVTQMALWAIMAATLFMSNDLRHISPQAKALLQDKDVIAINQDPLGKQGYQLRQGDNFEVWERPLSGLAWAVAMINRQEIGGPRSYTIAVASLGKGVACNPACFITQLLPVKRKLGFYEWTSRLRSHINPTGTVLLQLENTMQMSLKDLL
Summary of the method: (§1)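 Transient HEK-293 expression of mutant α-Gal A; ±migalastat 17 nM–1 mM, 4–5 d; lysate α-Gal A by 4-MU-α-Gal fluorescence or western blot.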

[2] = molecular target: T2, α-Gal A mutant form p.Asp264Tyr (c.790 G > T) (Homo sapiens, UniProt P06280, D264Y)
T2 construct: expressed in transfected cells; host or cells: HEK-293
T2 sequence (P06280 32-429 D264Y): T1 sequence (P06280 32-429 P293T) with D233Y, T262P
Summary of the method: as §1

[3] = molecular target: T3, α-Gal A mutant form p.Arg356Trp (c.1066 C > T) (Homo sapiens, UniProt P06280, R356W)
T3 construct: expressed in transfected cells; host or cells: HEK-293
T3 sequence (P06280 32-429 R356W): T1 sequence (P06280 32-429 P293T) with T262P, R325W
Summary of the method: as §1

[4] = molecular target: T4, α-Gal A mutant form p.Asp55Val/Glu57Leu (c.164 A > T; c.170 A > T) (Homo sapiens, UniProt P06280, D55V/Q57L)
T4 construct: expressed in transfected cells; host or cells: HEK-293
T4 sequence (P06280 32-429 D55V/Q57L): T1 sequence (P06280 32-429 P293T) with D24V, Q26L, T262P
Summary of the method: as §1

[5] = molecular target: T5, α-Gal A mutant form p.Met187Ile (c.561 G > A) (Homo sapiens, UniProt P06280, M187I)
T5 construct: expressed in transfected cells; host or cells: HEK-293
T5 sequence (P06280 32-429 M187I): T1 sequence (P06280 32-429 P293T) with M156I, T262P
Summary of the method: as §1

[6] = +10 μM migalastat, HEK-293 cell lysate, mean ± SEM, n = 20
[7] = HEK293, 10 μM migalastat minus baseline, read-out: Absolute increase at 10 μM (% WT)

## OC[C@H]1NC[C@H](O)[C@@H](O)[C@H]1O [migalastat]
[1]; 10 μM migalastat
  α-Gal A activity at 10 μM (fold over baseline): 19.60 fold over baseline
[1]; [6]
  +Migalastat α-Gal A activity: 4488 ± 327 nmol/mg/h
  +Migalastat α-Gal A activity % WT: 13.3 ± 1.1 % WT
[1]; [7]
  activation at 10 µM: 12.7%
[2]; 10 μM migalastat
  α-Gal A activity at 10 μM (fold over baseline): 12.89 fold over baseline
[2]; [6]
  +Migalastat α-Gal A activity: 1842 ± 100 nmol/mg/h
  +Migalastat α-Gal A activity % WT: 6.2 ± 0.3 % WT
[2]; [7]
  activation at 10 µM: 5.7%
[3]; 10 μM migalastat
  α-Gal A activity at 10 μM (fold over baseline): 4.42 fold over baseline
[3]; [6]
  +Migalastat α-Gal A activity: 15570 ± 830 nmol/mg/h
  +Migalastat α-Gal A activity % WT: 49.1 ± 2.6 % WT
[3]; [7]
  activation at 10 µM: 38.1%
[4]; 10 μM migalastat minus baseline, read-out: Absolute increase at 10 μM (% WT)
  activation at 10 µM: 8%
[4]; [6]
  +Migalastat α-Gal A activity: 2526 ± 287 nmol/mg/h
  +Migalastat α-Gal A activity % WT: 8.0 ± 0.5 % WT
[5]; 10 μM migalastat
  α-Gal A activity at 10 μM (fold over baseline): 6.10 fold over baseline
[5]; [6]
  +Migalastat α-Gal A activity: 10824 ± 555 nmol/mg/h
  +Migalastat α-Gal A activity % WT: 30.7 ± 1.1 % WT
[5]; [7]
  activation at 10 µM: 25.6%
